1 compound from patent publication US10881702B2, “Celastrol and derivatives thereof for the treatment of tumours and precancerous diseases of the skin” (PIERRE FABRE MEDICAMENT, priority 2016, dated 2021) can be followed below.

The nature of data set [1]: Clinical monitoring: body weight of topically treated SKH-1 mice. The data set is classed as in vivo, mice (SKH-1). The text has this: (§1) Non-inbred hairless SKH-1 strain mice are most commonly used in preclinical dermatological research. These non-pigmented and immunocompetent mice allow easy manipulation of the skin, application of topical agents, exposure to UV radiation and easy visualisation of the cutaneous response. Wound healing, acute biological photo responses and skin carcinogenesis are well characterised in this mouse strain. In addition, the tumours induced in these mice resemble, at both the molecular and the morphological level, UV-induced malignant skin tumours in humans. In this study on healthy skin, 6- to 8-week-old SKH-1 females (18 to 20 grams; Charles River Laboratories) are treated topically with the various compounds.
Picato® (0.015% ingenol mebutate), used in humans to treat actinic keratosis lesions, was administered topically to the animals (2 to 3 animals per group) for 24 hours under a 19-mm-diameter, i.e., 2.83 cm^2, occlusive patch (Hill Top Research, USA). The patch is loaded with 200 μL of Picato® cream, i.e. 30 μg of active ingredient. The treated skin area is delimited by tattooing on each mouse and the patch is held on the mouse using Tegaderm™ film and Omnifix® and Elastoplast™ adhesive tape. The occlusive dressing is removed after 24 hours, and the animals are followed clinically for 3 to 4 weeks. […]

Data set [2] has as its system healthy skin (epidermal keratinocytes). In kind it is in vivo, mice (SKH-1). The note with it: occlusive patch 30 h.
Text: Apoptosis is a fundamental event in cell development (proliferation). The visualisation of apoptosis and the subsequent healing phenomenon reflects the efficacy of medicaments in the treatment of precancerous and cancerous cells. Picato® (0.015% ingenol mebutate) is a product on the market which is indicated for the treatment of actinic keratosis. Picato® is known to induce cell death by a necrotic effect that rapidly eliminates dead cells, followed by a healing phase. To evaluate the “apoptotic” power of celastrol on skin cells (epidermal keratinocytes), we compared the apoptotic effect induced by the topical application of celastrol compared to that of a product already on the market.
as §1
Picato® (0.015% ingenol mebutate), used in humans to treat actinic keratosis lesions, was administered topically to the animals (2 to 3 animals per group) for 24 hours under a 19-mm-diameter, i.e., 2.83 cm^2, occlusive patch (Hill Top Research, USA). The patch is loaded with 200 μL of Picato® cream, i.e. 30 μg of active ingredient. The treated skin area is delimited by tattooing on each mouse and the patch is held on the mouse using Tegaderm™ film and Omnifix® and Elastoplast™ adhesive tape. The occlusive dressing is removed after 24 hours, and the animals are followed clinically for 3 to 4 weeks.
Celastrol (Euromedex) is formulated in a vehicle consisting of 5% DMSO-70% glycerol-25% water. The pH is adjusted by adding soda to around 8-8.5 in order to completely solubilise the powder. The initial concentration is 10 mg/mL then serial dilutions in the vehicle yield concentrations of 5 and 2.5 mg/mL. Celastrol is applied topically for 30 hours under a 19-mm-diameter occlusive patch. The patches are loaded with 200 μL of the various celastrol solutions, i.e. 2000 μg, 1000 μg or 500 μg of active ingredient.
The treated skin area is delimited by tattooing on each mouse and the patch is held on the mouse using Tegaderm™ film and Omnifix® and Elastoplast™ adhesive tape. The occlusive bandage is removed after 30 hours and the animals are followed clinically for 3 to 4 weeks.
The animals are weighed twice per week. The treated area of each animal is photographed two to three times per week in order to follow the progression of the cutaneous reaction and healing.

As for `CC1=C(O)C(=O)C=C2C1=CC=C1[C@@]2(C)CC[C@@]2(C)[C@@H]3C[C@](C)(C(=O)O)CC[C@]3(C)CC[C@]12C` [celastrol], the “systemic toxicity / tolerance” value in data set [1] (topical route at the doses used, SKH-1 mice) is listed as “no systemic toxicity”. For the same compound, the “effect on the weight of SKH-1 mice” value in data set [1] (topical, occlusive patch, Picato 200 μL (30 μg) 24 h, celastrol 500-2000 μg 30 h, weighed twice per week) was “no effect on the weight”. Moreover, the “scar area on day 28” value in data set [2] (celastrol 1000 μg and 2000 μg doses) is recorded as “slight hypertrophy of the scar area”. Also, the “cutaneous reaction first visible” value in data set [2] (celastrol 500, 1000, 2000 μg, 24 hours after discontinuation) was found to be 3 days. Further, the healing process starts in data set [2] (celastrol 500-2000 μg, dose-dependent) was 7 days. In addition, the “depth of the pro-apoptotic action” value in data set [2] (celastrol 500-2000 μg, localised in the epidermis) is “superficial”. Also, in data set [2] (celastrol topical, dose-dependent), the “dose from which apoptosis of epidermal cells is induced in vivo” value is not below 500 μg/application. In data set [2] (celastrol, even at the highest dose (2000 μg)), the haemorrhagic zones result was “no haemorrhagic zones are observed”.
